Measurements: patent publication US12398120B2, “Substituted hydantoinamides as ADAMTS7 antagonists” (BAYER AKTIENGESELLSCHAFT, priority 2019, dated 2025)

Biological target: ADAMTS4 (Homo sapiens (Human), UniProt O75173)
Assay: Selectivity assay for ADAMTS-7 modulators: ADAMTS4 (FRET substrate)
Format: biochemical
Conditions: ADAMTS4 (R&D 4307-AD) 50 nM, substrate Dabcyl-EEVKAKVQPY-Glu(Edans)-NH2 1 μM, 120 min, 32° C.
In short: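 Human ADAMTS4 with compound in DMSO, or DMSO control; reaction started by adding FRET substrate in reaction buffer. Fluorescence increase measured at substrate-specific wavelengths. IC50 derived from % inhibition of enzyme activity versus compound concentration.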

Chain of ADAMTS4 (O75173 213-685): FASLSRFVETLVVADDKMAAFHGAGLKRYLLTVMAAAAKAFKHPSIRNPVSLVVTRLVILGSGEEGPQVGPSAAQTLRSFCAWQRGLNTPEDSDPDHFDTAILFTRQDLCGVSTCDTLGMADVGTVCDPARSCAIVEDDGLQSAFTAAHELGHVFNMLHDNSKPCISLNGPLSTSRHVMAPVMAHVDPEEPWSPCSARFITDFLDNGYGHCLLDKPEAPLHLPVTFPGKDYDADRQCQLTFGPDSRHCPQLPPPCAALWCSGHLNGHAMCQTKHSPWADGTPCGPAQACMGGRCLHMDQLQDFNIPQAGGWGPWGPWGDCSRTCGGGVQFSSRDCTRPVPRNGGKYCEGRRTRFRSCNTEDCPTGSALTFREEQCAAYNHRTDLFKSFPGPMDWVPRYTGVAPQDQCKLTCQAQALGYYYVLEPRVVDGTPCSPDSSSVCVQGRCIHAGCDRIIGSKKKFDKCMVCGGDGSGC

Compound	IC50 [µM]
Cc1ccc(-c2cccc(F)c2C(=O)NC[C@@]2(C3CC3)NC(=O)NC2=O)cc1 [Example 229, N-{[(4R)-4-Cyclopropyl-2,5-Dioxoimidazolidin-4-Yl]Methyl}-3-Fluoro-4′-Methyl[1,1′-Biphenyl]-2-Carboxamide]	20
Cc1ncsc1C1(CNC(=O)c2ccc(F)cc2-c2ccc(C(F)(F)F)cc2)NC(=O)NC1=O (single isomer, unassigned; ent-5) [Example 10, Ent-5-Fluoro-N-{[4-(4-Methyl-1,3-Thiazol-5-Yl)-2,5-Dioxoimidazolidin-4-Yl]Methyl}-4′-(Trifluoromethyl)[Biphenyl]-2-Carboxamide]	8.9
O=C1NC(=O)C(CNC(=O)c2ccccc2-c2ccc(C(F)(F)F)cc2)(C2CCOCC2)N1 (racemic) [Example 29, Rac-N-{[2,5-Dioxo-4-(Tetrahydro-2H-Pyran-4-Yl)Imidazolidin-4-Yl]Methyl}-4′-(Trifluoromethyl)[Biphenyl]-2-Carboxamide]	> 50
O=C1NC(=O)[C@](CNC(=O)c2ccccc2-c2ccc(OC(F)F)cc2)(C2CC2)N1 [Example 127, N-{[(4R)-4-Cyclopropyl-2,5-Dioxoimidazolidin-4-Yl]Methyl}-4′-(Difluoromethoxy)[Biphenyl]-2-Carboxamide]	13
O=C1NC(=O)[C@](CNC(=O)c2ccc(F)cc2-c2ccc(Cl)cc2)(C2CC2)N1 [Example 126, 4′-Chloro-N-{[(4R)-4-Cyclopropyl-2,5-Dioxoimidazolidin-4-Yl]Methyl}-5-Fluoro[Biphenyl]-2-Carboxamide]	11
CCc1ccc(-c2ccccc2C(=O)NC[C@@]2(C3CC3)NC(=O)NC2=O)cc1 [Example 106, N-{[(4R)-4-Cyclopropyl-2,5-Dioxoimidazolidin-4-Yl]Methyl}-4′-Ethyl[Biphenyl]-2-Carboxamide]	5.4
Cc1sc(C(F)(F)F)nc1C1(CNC(=O)c2ccc(F)cc2-c2ccc(C(F)(F)F)cc2)NC(=O)NC1=O (racemic) [Example 303, Rac-5-Fluoro-N-({4-[5-Methyl-2-(Trifluoromethyl)-1,3-Thiazol-4-Yl]-2,5-Dioxoimidazolidin-4-Yl}Methyl)-4′-(Trifluoromethyl)[Biphenyl]-2-Carboxamide]	38
COc1ccc(-c2ccccc2C(=O)NC[C@@]2(C3CC3)NC(=O)NC2=O)cc1 [Example 130, N-{[(4R)-4-Cyclopropyl-2,5-Dioxoimidazolidin-4-Yl]Methyl}-4′-Methoxy[Biphenyl]-2-Carboxamide]	17.3
CC1CCC1C1(CNC(=O)c2ccccc2-c2ccc(C(F)(F)F)cc2)NC(=O)NC1=O (stereo not drawn) [Example 13, Diamix-N-{[4-(2-Methylcyclobutyl)-2,5-Dioxoimidazolidin-4-Yl]Methyl}-4′-(Trifluoromethyl)[Biphenyl]-2-Carboxamide]	> 50
Cc1nc(C)c(C2(CNC(=O)c3ccccc3-c3ccc(C(F)(F)F)cc3)NC(=O)NC2=O)s1 (racemic) [Example 15, Rac-N-{[4-(2,4-Dimethyl-1,3-Thiazol-5-Yl)-2,5-Dioxoimidazolidin-4-Yl]Methyl}-4′-(Trifluoromethyl)[Biphenyl]-2-Carboxamide]	7.75
Cc1nscc1C1(CNC(=O)c2ccccc2-c2ccc(C(F)(F)F)cc2)NC(=O)NC1=O (racemic) [Example 63, Rac-N-{[4-(3-Methyl-1,2-Thiazol-4-Yl)-2,5-Dioxoimidazolidin-4-Yl]Methyl}-4′-(Trifluoromethyl)[Biphenyl]-2-Carboxamide]	13
Cn1ccnc1C1(CNC(=O)c2cc(F)ccc2-c2ccc(C3CC3(F)F)cc2)NC(=O)NC1=O (stereo not drawn) [Example 139, 4′-(2,2-Difluorocyclopropyl)-4-Fluoro-N-{[4-(1-Methyl-1H-Imidazol-2-Yl)-2,5-Dioxoimidazolidin-4-Yl]Methyl}[1,1′-Biphenyl]-2-Carboxamide]	2.1
O=C1NC(=O)[C@](CNC(=O)c2c(F)cccc2-c2ccc(C(F)(F)F)cc2)(C2CC2)N1 [Example 230, N-{[(4R)-4-Cyclopropyl-2,5-Dioxoimidazolidin-4-Yl]Methyl}-3-Fluoro-4′-(Trifluoromethyl)[1,1′-Biphenyl]-2-Carboxamide]	33
Cc1nonc1C1(CNC(=O)c2ccccc2-c2ccc(C(F)(F)F)cc2)NC(=O)NC1=O (racemic) [Example 32, Rac-N-{[4-(4-Methyl-1,2,5-Oxadiazol-3-Yl)-2,5-Dioxoimidazolidin-4-Yl]Methyl}-4′-(Trifluoromethyl)[Biphenyl]-2-Carboxamide]	35
Cn1nccc1C1(CNC(=O)c2ccccc2-c2ccc(Cl)cc2F)NC(=O)NC1=O (single isomer, unassigned; ent-4) [Example 313, Ent-4′-Chloro-2′-Fluoro-N-{[4-(1-Methyl-1H-Pyrazol-5-Yl)-2,5-Dioxoimidazolidin-4-Yl]Methyl}[Biphenyl]-2-Carboxamide]	23
Cc1ccc(C(=O)NCC2(c3scnc3C)NC(=O)NC2=O)c(-c2ccc(C(F)(F)F)cc2)c1 (single isomer, unassigned; ent-5) [Example 8, Ent-5-Methyl-N-{[4-(4-Methyl-1,3-Thiazol-5-Yl)-2,5-Dioxoimidazolidin-4-Yl]Methyl}-4′-(Trifluoromethyl)[Biphenyl]-2-Carboxamide]	3.8
Cc1c(C2(CNC(=O)c3ccc(Cl)cc3-c3ccc(C(F)(F)F)cc3)NC(=O)NC2=O)cnn1C (racemic) [Example 33, Rac-5-Chloro-N-{[4-(1,5-Dimethyl-1H-Pyrazol-4-Yl)-2,5-Dioxoimidazolidin-4-Yl]Methyl}-4′-(Trifluoromethyl)[Biphenyl]-2-Carboxamide]	5.2
O=C1NC(=O)[C@](CNC(=O)c2ccc(Cl)c(F)c2-c2ccc(C(F)(F)F)cc2)(C2CC2)N1 [Example 93, 5-Chloro-N-{[(4R)-4-Cyclopropyl-2,5-Dioxoimidazolidin-4-Yl]Methyl}-6-Fluoro-4′-(Trifluoromethyl)[1,1′-Biphenyl]-2-Carboxamide]	3.4
Cc1ccc(-c2cc(Cl)ccc2C(=O)NC[C@@]2(C3CC3)NC(=O)NC2=O)cc1 [Example 215, 5-Chloro-N-{[(4R)-4-Cyclopropyl-2,5-Dioxoimidazolidin-4-Yl]Methyl}-4′-Methyl[Biphenyl]-2-Carboxamide]	3.5
Cn1nccc1C1(CNC(=O)c2ccc(Cl)cc2-c2ccc(C(F)(F)F)nc2)NC(=O)NC1=O (single isomer, unassigned; ent-4) [Example 289, Ent-4-Chloro-N-{[4-(1-Methyl-1H-Pyrazol-5-Yl)-2,5-Dioxoimidazolidin-4-Yl]Methyl}-2-[6-(Trifluoromethyl)Pyridin-3-Yl]Benzamide]	6.3
O=C1NC(=O)C(CNC(=O)c2ccc(F)cc2-c2ccc(Cl)cc2)(c2ncccc2C(F)(F)F)N1 (racemic) [Example 241, Rac-4′-Chloro-N-({2,5-Dioxo-4-[3-(Trifluoromethyl)Pyridin-2-Yl]Imidazolidin-4-Yl}Methyl)-5-Fluoro[Biphenyl]-2-Carboxamide]	41
Cc1ncsc1C1(CNC(=O)c2ccc(Cl)cc2-c2ccc(C(F)(F)F)cc2)NC(=O)NC1=O (single isomer, unassigned; ent-5) [Example 7, Ent-5-Chloro-N-{[4-(4-Methyl-1,3-Thiazol-5-Yl)-2,5-Dioxoimidazolidin-4-Yl]Methyl}-4′-(Trifluoromethyl)[Biphenyl]-2-Carboxamide]	3.7
Cc1cnsc1C1(CNC(=O)c2ccccc2-c2ccc(C(F)(F)F)cc2)NC(=O)NC1=O (racemic) [Example 97, Rac-N-{[4-(4-Methyl-1,2-Thiazol-5-Yl)-2,5-Dioxoimidazolidin-4-Yl]Methyl}-4′-(Trifluoromethyl)[Biphenyl]-2-Carboxamide]	7.2
Cc1ncsc1C1(CNC(=O)c2ccccc2-c2ccc(C(F)(F)F)cc2)NC(=O)NC1=O (stereo not drawn) [Example 27, Ent-N-{[4-(4-Methyl-1,3-Thiazol-5-Yl)-2,5-Dioxoimidazolidin-4-Yl]Methyl}-4′-(Trifluoromethyl)[Biphenyl]-2-Carboxamide]	9.1
CC(C)C1(CNC(=O)c2cccc(F)c2-c2ccc(C(F)(F)F)cc2)NC(=O)NC1=O (single isomer, unassigned; ent-6) [Example 210, Ent-6-Fluoro-N-[(4-Isopropyl-2,5-Dioxoimidazolidin-4-Yl)Methyl]-4′-(Trifluoromethyl)[Biphenyl]-2-Carboxamide]	23
O=C1NC(=O)C(CNC(=O)c2ccccc2-c2ccc(Cl)cc2)(c2ccnn2C(F)F)N1 (single isomer, unassigned; ent-4) [Example 259, Ent-4′-Chloro-N-({4-[1-(Difluoromethyl)-1H-Pyrazol-5-Yl]-2,5-Dioxoimidazolidin-4-Yl}Methyl)[Biphenyl]-2-Carboxamide]	5.8
Cn1nccc1C1(CNC(=O)c2cc(F)c(F)cc2-c2ccc(C(F)(F)F)cc2)NC(=O)NC1=O (single isomer, unassigned; ent-4) [Example 192, Ent-4,5-Difluoro-N-{[4-(1-Methyl-1H-Pyrazol-5-Yl)-2,5-Dioxoimidazolidin-4-Yl]Methyl}-4′-(Trifluoromethyl)[Biphenyl]-2-Carboxamide]	7.13
O=C1NC(=O)[C@](CNC(=O)c2cc(F)ccc2-c2ccc(C(F)(F)F)cc2)(C2CC2)N1 [Example 121, N-{[(4R)-4-Cyclopropyl-2,5-Dioxoimidazolidin-4-Yl]Methyl}-4-Fluoro-4′-(Trifluoromethyl)[Biphenyl]-2-Carboxamide]	5.9
CCC1(CNC(=O)c2ccccc2-c2ccc(C(F)(F)F)cc2)NC(=O)NC1=O (racemic) [Example 81, Rac-N-[(4-Ethyl-2,5-Dioxoimidazolidin-4-Yl)Methyl]-4′-(Trifluoromethyl)[Biphenyl]-2-Carboxamide]	> 50
Cc1nocc1C1(CNC(=O)c2ccccc2-c2ccc(C(F)(F)F)nc2)NC(=O)NC1=O (stereo not drawn) [Example 65, Ent-N-{[4-(3-Methyl-1,2-Oxazol-4-Yl)-2,5-Dioxoimidazolidin-4-Yl]Methyl}-2-[6-(Trifluoromethyl)Pyridin-3-Yl]Benzamide]	20
